The record followed here is paper PMC7529893, “Structural basis for substrate recognition and chemical inhibition of oncogenic MAGE ubiquitin ligases” (Nature Communications, 2020).

Molecules are shown by their SMILES. ≈ marks a conversion by molar mass, not a printed value.

The nature of series [1]: Solubility assay (μSOL Evolution). It is filed as physicochemical. As to conditions: citrate phosphate-buffered saline (isotonic) with 1% DMSO; 18 h at RT. The protocol:
Solubility assays were carried out on a Biomek FX lab automation workstation (Beckman Coulter, Inc., Fullerton, CA) using μSOL Evolution software (pION Inc., Woburn, MA). The detailed method is described as follows. 10 µl of 10 mM compound stock (in DMSO) was added to 190 μl 1-propanol to make a reference stock plate. In total, 5 µl from this reference stock plate were mixed with 70 µl 1-propanol and 75 µl citrate phosphate-buffered saline (PBS; isotonic) to make the reference plate, and the UV spectrum (250–500 nm) of the reference plate was read. In total, 6 µl of 10 mM test compound stock was added to 594 µl buffer in a 96-well storage plate and mixed. The storage plate was sealed and incubated at RT for 18 h. The suspension was then filtered through a 96-well filter plate (pION Inc., Woburn, MA). In all, 75 µl of filtrate was mixed with 75 µl 1-propanol to make the sample plate, and the UV spectrum of the sample plate was read. Calculations were carried out with μSOL Evolution software based on the area under the curve (AUC) of the UV spectrum of the sample and reference plates. All compounds were tested in triplicate.

Series [2] deals with T1, MAGE-A11:PCF11 interaction (GST-MAGE-A11 MHD and FAM-PCF11_4) (Homo sapiens, UniProt P43364).
T1 construct: GST-MAGE-A11 MHD (human MAGE-A11 MHD amino acid 218-429); made in house; host or cells: E. coli BL21(DE3)
T1 sequence (P43364 218-429): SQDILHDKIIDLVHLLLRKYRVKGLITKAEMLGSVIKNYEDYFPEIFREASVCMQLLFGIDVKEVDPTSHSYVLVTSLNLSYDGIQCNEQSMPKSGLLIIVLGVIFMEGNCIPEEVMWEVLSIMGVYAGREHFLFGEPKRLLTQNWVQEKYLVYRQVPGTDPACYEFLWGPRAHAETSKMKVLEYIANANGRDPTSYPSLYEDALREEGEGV
The series is described as follows: TR-FRET dose response test of compounds for disruption of MAGE-A11:PCF11 binding. The conditions noted are these: Fig. 5c, 5f, Supplementary Fig. 4e legend; read-out: IC50, TR-FRET competition, disruption of MAGE-A11:PCF11 binding. The gist of the method:
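Competition of compounds against binding of FAM-PCF11_4 peptide to GST-MAGE-A11 MHD, detected with Tb-anti-GST, in 50 mM Tris pH 7.5, 20 mM MgCl2, 0.1 mg/ml BSA, 1 mM DTT. 90 min at ~25 °C; 520/490 nm emission ratio (340 nm excitation) fitted for IC50.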

In general, solubility refers to the dissolved amount per volume that the medium holds. A higher solubility goes with much dissolved substance. Broadly, the IC50 is the concentration that inhibits the measured activity by half. On to `FC(F)(F)c1ccc2c(NCCCNCc3ccc4[nH]ccc4c3)ccnc2c1` [SJ000521054-02], for which the solubility at 18 h in series [1] was found to be 26.5 µM (≈ 10.6 µg/mL). Moreover, in series [2], the concentration for half-maximal inhibition (IC50) was 400 nM.

On to `c1ccc2c(NCCCNCc3ccc4[nH]ccc4c3)ccnc2c1` [SJ001008066-01], for which the solubility at 18 h in series [1] was 37.8 µM (≈ 12.5 µg/mL). Further, the IC50 in series [2] is 130 nM.
